Assays:
[1] = molecular target: Somatostatin receptor type 4 (Homo sapiens, UniProt P31391); assay: SSTR4 I-125 Somatostatin Competition Binding Assay for Selectivity Versus SSTR4
Description: Then 1 μg of SSTR4 membranes in 50 μL assay buffer are added per well. The Plate is incubated for 60 minutes at room temperature. […] The contents of the assay plate are transferred to filters with a TomTech harvester and washed 5 times with 20 mM HEPES, 100 mM NaCl. […] The scintillator sheets are melted to filters using a heat block. The filters are then read in a MicroBeta scintillation counter. Binding Ki curves are generated using Activity Base for Screening Data Management and the results are reported as pIC50.

[2] = molecular target: Somatostatin receptor type 1 (Homo sapiens, UniProt P30872); assay: SSTR1 I-125 Somatostatin Competition Binding Assay for Selectivity Versus SSTR1
Sequence of Somatostatin receptor type 1 (P30872 whole entry): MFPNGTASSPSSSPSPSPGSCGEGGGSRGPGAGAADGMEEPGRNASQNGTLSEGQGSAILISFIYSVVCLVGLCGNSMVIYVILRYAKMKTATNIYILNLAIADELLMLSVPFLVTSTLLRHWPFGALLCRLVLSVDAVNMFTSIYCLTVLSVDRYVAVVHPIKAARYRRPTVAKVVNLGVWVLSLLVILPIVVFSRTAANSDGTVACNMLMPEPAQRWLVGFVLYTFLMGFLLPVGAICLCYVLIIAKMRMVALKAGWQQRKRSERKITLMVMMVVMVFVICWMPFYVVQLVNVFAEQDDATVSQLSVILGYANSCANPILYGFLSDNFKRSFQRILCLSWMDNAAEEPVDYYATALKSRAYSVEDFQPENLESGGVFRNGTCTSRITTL
Description: Then 10 μg of SSTR1 membranes in 50 μL assay buffer are added per well. The plate is incubated for 60 minutes at room temperature. […] The contents of the assay plate are transferred to filters with a TomTech harvester and washed 5 times with 20 mM HEPES, 100 mM NaCl. […] The scintillator sheets are melted to the filters using a heat block. The filters are then read in a MicroBeta scintillation counter. Binding Ki curves are generated using Activity Base for Screening Data Management and the results are reported as pIC50.

Sequence of Somatostatin receptor type 4 (P31391 whole entry): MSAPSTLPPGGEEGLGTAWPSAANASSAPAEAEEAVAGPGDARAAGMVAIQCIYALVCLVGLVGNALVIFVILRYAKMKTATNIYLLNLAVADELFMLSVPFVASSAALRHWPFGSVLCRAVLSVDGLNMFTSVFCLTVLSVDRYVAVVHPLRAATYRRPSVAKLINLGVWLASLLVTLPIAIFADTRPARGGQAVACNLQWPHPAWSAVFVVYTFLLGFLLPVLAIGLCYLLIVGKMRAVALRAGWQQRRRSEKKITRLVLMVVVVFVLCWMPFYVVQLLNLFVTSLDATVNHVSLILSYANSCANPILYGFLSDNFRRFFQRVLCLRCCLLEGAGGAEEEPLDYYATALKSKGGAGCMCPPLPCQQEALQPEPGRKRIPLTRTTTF

- IC50 [1]: 87.1 nM
- IC50 [2]: > 50100 nM
Compound: O=C(N[C@H]1CCNC[C@@H]1F)C1(Cc2cccc(F)c2)CC1 [US20250188037, Example 44]
